Results on one compound are retold here after US6440389B1, “Fluorescent agents for real-time measurement of organ function” (The General Hospital Corporation, priority 2000, dated 2002).

The data set in a line: Fluorometric analysis, excitation and emission spectra. Format: physicochemical. The conditions noted are these: FIG. 4. The protocol:
For the synthesis of a nile blue-DTPA conjugate, 0.1 g of DTPA dianhydride (ccDPTA) was dissolved in 6 ml of dimethyl sulfoxide (DMSO) in a round bottom flask. Ninety mg of nile blue were dissolved in DMSO and 36 μL of triethyl amine were added, turning the solution purple. The nile blue solution was added drop wise to the solution of ccDTPA while stirring. The solution turned blue. Thirty-eight μL of […] (TEA) were added to the final mixture, turning the solution purple. After mixing, the mixture was heated to 60° C. and stirred for 2 hours. The reaction mixture was then loaded onto a silica gel column and eluted with acetone:ethylacetate. The fractions corresponding to the nile blue-DTPA conjugate were pooled and evaporated, yielding a magenta colored oil. The oil was rechromatographed on a second silica gel column using acetone as eluant. The nile blue-DTPA conjugated fractions were pooled and rotate-evaporated to give a magenta colored oil. […]
The only group of chelating agents known to produce highly soluble and stable lanthanide chelates are the polyamino polyacetic acid analogs. […] The simplest initial approach was to study the fluorescence characteristics of the chelate between Eu and other already commercially available polyaminopoly bis (2-aminoethyl ether) acetic acids. […]

For the compound `CC[N+](CC)=c1ccc2nc3c(cc(N)c4ccccc43)oc-2c1` [nile blue], the emission fluorescence came to 695 nm and the maximal excitation result is recorded as “approximately 390 nm”.
